Source: patent publication US12337010B2, “Compositions and methods of treatment using nicotinamide mononucleotide” (Washington University, priority 2017, dated 2025)

Columns and labels:
[1] = tested on: primary mouse hepatocytes; experiment: NMN uptake in primary mouse hepatocytes, intracellular NMN by HPLC; type: cell-based
Experimental: The amounts of adenosine produced were determined by HPLC. […] Silencing efficiencies were evaluated by quantitative RT-PCR.
Primary mouse hepatocytes were pretreated with 500 nM FK866 for 24 h and then incubated with a cocktail of 20 μM dipyridamole, 500 μM AOPCP, and 500 nM FK866, with or without 100 μM NMN. NMN was measured by HPLC (n=4 mice, except for 3 data sets for 15 and 30 minute time points for inhibitors only; analyzed using ANOVA with Sidak's test).
To measure the knockdown efficiencies of Slc12a8 and Nrk1 mRNA in primary mouse hepatocytes, cells were treated with scramble and Slc12a8 or Nrk1 siRNA for 72 h (n=5 mice for Slc12a8 silencing and n=3 for Nrk1 silencing; analyzed by unpaired […] t-test). Without being limited by theory, these conditions knocked down expression of Slc12a8 and Nrk1, a major NR kinase that converts NR to NMN intracellularly (Belenky, P., et al., Cell, 129, 473-484, 2007). Primary hepatocytes treated with scramble, Slc12a8, and Nrk1 siRNA were assayed at 1 min after addition of 100 μM NMN via HPLC. Culture conditions were the same as described in Example 3 (n=5 mice for Slc12a8 silencing and n=3 for Nrk1 silencing; analyzed by ANOVA with Tukey's test). The knockdown efficiencies for both genes are approximately 80% (FIG. 7).

[2] = target: T1, Slc12a8 (Mus musculus, UniProt Q8VI23); experiment: 3H-NMN uptake and displacement in Slc12a8-OE proteoliposomes; type: biochemical
T1 construct: NIH3T3 cells were transfected with 5 μg of pCXN2 carrying the full-length Slc12a8 cDNA (Slc12a8-OE); expressed in transfected cells
T1 sequence (Q8VI23 1-705): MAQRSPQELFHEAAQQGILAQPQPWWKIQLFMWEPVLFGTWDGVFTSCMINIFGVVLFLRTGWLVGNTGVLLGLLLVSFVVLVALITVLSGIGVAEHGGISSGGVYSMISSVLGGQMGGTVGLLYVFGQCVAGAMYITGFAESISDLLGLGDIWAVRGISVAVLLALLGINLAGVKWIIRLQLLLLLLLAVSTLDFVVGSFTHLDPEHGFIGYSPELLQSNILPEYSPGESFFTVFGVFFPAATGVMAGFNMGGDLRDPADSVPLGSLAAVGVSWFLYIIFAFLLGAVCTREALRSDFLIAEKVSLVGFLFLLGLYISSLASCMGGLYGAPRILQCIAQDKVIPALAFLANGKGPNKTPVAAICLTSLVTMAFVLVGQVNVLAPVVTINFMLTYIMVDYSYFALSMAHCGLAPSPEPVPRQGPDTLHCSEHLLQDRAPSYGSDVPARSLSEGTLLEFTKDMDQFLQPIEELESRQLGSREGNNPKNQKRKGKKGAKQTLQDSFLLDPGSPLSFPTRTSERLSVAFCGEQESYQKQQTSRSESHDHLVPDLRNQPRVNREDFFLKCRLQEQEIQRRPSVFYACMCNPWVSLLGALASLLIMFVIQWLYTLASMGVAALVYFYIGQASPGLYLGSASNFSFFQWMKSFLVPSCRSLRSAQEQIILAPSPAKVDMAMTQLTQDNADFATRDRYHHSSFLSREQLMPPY
Experimental: Proteoliposome experiments. Proteoliposome preparation was carried out as previously described (Bruzzone, S., et al., FASEB J., 15, 10-12, 2001). Briefly, 2×10^7 control or Slc12a8-OE NIH3T3 cells were resuspended in 1 ml of lysis buffer (10 mM Tris-HCl, pH 8.3, 150 mM NaCl, 0.3 M sucrose, protease inhibitor cocktail) and disrupted using a homogenizer. The lysate was centrifuged for 10 min at 3,000×g, and the supernatant was collected and centrifuged for 15 min at 100,000×g. The membrane proteins were solubilized with buffer A (10 mM Tris-HCl, pH 8.3, containing 150 mM NaCl and 0.5% n-octyl β-glucopyranoside). Separately, total lipids were extracted from hemoglobin-free erythrocyte membranes (ghosts) as described previously (Franco, L., et al., FASEB J., 12, 1507-1520, 1998). Total lipids from human erythrocyte membranes (3 mg) were dried and resuspended with 600 μl of solubilized membrane proteins (at approximately 0.7 mg/ml protein concentration). The resulting emulsions were sonicated in ice for 1 min and dialyzed against 5 liters of buffer A without n-octyl-β-glucopyranoside (dialysis buffer) for 24 h at 4° C. Proteoliposomes were recovered, centrifuged for 15 min at 100,000×g, resuspended in 900 μl dialysis buffer and passed 5 times through a 30-gauge needle.
To examine the Na+-dependency of Slc12a8, NaCl was replaced with 150 mM LiCl. All steps were carried out at 4° C. Proteoliposomes (30 μl in triplicate for each condition) were incubated for 2, 5 or 10 min at 25° C. in the presence of […] 3H-β-NMN (specific activity, 9.1 Ci/mmole) with or without label-free nucleotides (NMN, NR, NAD, AMP; NAM or NaMN). At the end of incubations, samples were filtered on a glass fiber paper. Filters were washed with 3 ml of dialysis buffer, dried, and counted for radioactivity.
Proteoliposomes were produced by combining the membrane fractions of Slc12a8-OE or control NIH3T3 cells with the phospholipid bilayers derived from deproteinized erythrocyte plasma membrane as described supra using 22 nM, ^3H-NMN at 25° C. in proteoliposomes produced from plasma membrane fractions of Slc12a8-OE and control NIH3T3 cells in transport buffer (n=3; analyzed by one-way ANOVA with Sidak's multiple comparisons test).
In order to determine substrate specificity of Slc12a8, these Slc12a8-OE proteoliposomes were used for displacement experiments with ^3H-NMN and various cold NAD+-related compounds. Uptake of ^3H-NMN (150 nM, 25° C.) was measured at 2 min in Slc12a8-OE proteoliposomes in the presence of 150 μM competing cold compounds (NMN, NR, NAD, AMP, NaMN, and nicotinamide) in transport buffer (n=3, analyzed by ANOVA with Dunnett's test). […] Data are shown as percentages of ^3H-NMN uptake (n=3; IC50 was calculated by non-linear regression analysis).
In these experiments, the sodium ion dependency of Slc12a8 for NMN transport was evaluated using the proteoliposome system.

[3] = tested on: NIH3T3 cells; experiment: Intracellular NAD+ levels in control and Slc12a8-OE NIH3T3 cells; type: cell-based, mouse; conditions: Slc12a8-OE cells, additional 1-hr incubation with 100 μM NMN after inhibitor cocktail
Text: NAD+ and NMN measurements by HPLC.

## NC(=O)c1ccc[n+]([C@@H]2O[C@H](COP(=O)([O-])O)[C@@H](O)[C@H]2O)c1 [NMN, nicotinamide mononucleotide]
[1]; 100 μM NMN with 20 μM dipyridamole, 500 μM AOPCP, 500 nM FK866, 1 min time point vs control
  intracellular NMN levels: significantly increase
[1]; Nrk1-knockdown hepatocytes, 1 min after 100 μM NMN
  NMN uptake: no significant reduction
[1]; Slc12a8-knockdown hepatocytes, 1 min after 100 μM NMN
  fast uptake of NMN: completely abrogated
[2]; 150 μM cold compound, 150 nM 3H-NMN, 25° C., 2 min
  displacement of 3H-NMN: complete displacement
[2]; Slc12a8-OE proteoliposome system
  IC50: 22.8 ± 3.6 µM
[3]
  intracellular NAD+ levels: restore NAD+ levels to the original levels
